For two compounds, EC50 results are on record in patent publication US20090088441A1, “Quinoline Compounds” (priority 2007, published 2009).

Experiment [1] deals with T1, GABABR1a/GABABR2 heterodimer (Homo sapiens, UniProt O75899+Q9UBS5).
T1 construct: expressed in transfected cells; membrane preparation
Description: GTPγS35 radioligand filtration-binding assay for determination of agonist potency. The format is biochemical. Conditions: membranes of CHO K1 Flp-In cells expressing GABABR1a/GABABR2; 30° C., 1 hour. Here is the method:
(§1) The potency and efficacy of the compounds acting as agonists at the GABAB receptor was also determined in a automated GTPγS^35 radioligand filtration-binding assay.
(§2) The GABAB receptor is a G-protein coupled receptor. Binding of a ligand activates the receptor leading to recruitment of G-protein and a substitution of the G-protein bound GDP to GTP. The G-protein becomes active. The G-protein is inactivated by hydrolysis of GTP to GDP. G-proteins are membrane bound and therefore present in membrane preparations.
(§3) In the GTPγS^35 assay, GTP is not present but instead GTPγS^35 where one of the phosphate groups are substituted to a sulphur group which cannot be hydrolysed. Upon activation of the receptor, radiolabelled GTPγS^35 replaces the GDP. The complex cannot be inactivated and the radiolabelled complex is accumulating. At the end of the assay, the reaction mixture is filtered through a membrane-binding filter. Excess GTPγS^35 is removed by washing and the membrane bound S^35, which correlates to the degree of receptor activation, is measured with a β-Liquid Scintillation Counter.
The human GABABR1a was subcloned into pIRESneo3 (Clontech) using GABABR1a construct as a template (refseqN NM001470). GABABR2 was subcloned into pcDNA5/FRT (Invitrogen) using GABABR2 construct as a template (refseqN NM005458). The Kozak sequence GCCACC was introduced before the start codon in both constructs.
For generation of stable cell lines, CHO K1 Flp-In cells (Invitrogen) were grown in DMEM/F12 1:1 media supplemented with 10% FBS at 37° C. in a humidified CO2-incubator. The cells were detached with Accutase and 1.5 million cells were seeded into T75 flasks. After 24 h, transfection of the cells were performed with the GABABR2 construct. For generation of cell lines expressing GABABR2, GABABR2 plasmid (1 μg) and pOG44 from Invitrogen (9 μg) were mixed with 30 μl Lipofectamine 2000 in 600 μl OptiMEM for 20 minutes. The cells were exposed to transfection medium for 5 hours and was then replaced with culture medium. After 2 days 0.5 mg/ml Hygromycin were added to culture medium. The cells were cultured for an additional 10 days to establish a stable cell mix expressing GABABR2. For generation of a cell line expressing the GABABR1a/GABABR2 hetrodimer, GABABR1a plasmid DNA (8 μg) and Lipofectamine (30 μl) were mixed in 600 μl OptiMEM and incubated for 20 minutes before added to CHO-Flp-In cells expressing GABABR2. After 2 days additional selection agent was added (0.8 mg/ml Geneticin). The cells were cultured for another 10 days to generate a stable mixed population expressing the GABABR1a/GABABR2 heterodimer. The cell line was analyzed by GTPγS^35 assay with GABA as agonist.
GTPγS^35 radioligand filtration-binding assays were performed using an automated workstation at 30° C. for 1 hour in assay buffer (50 mM HEPES, 40 mM NaCl, 1 mM MgCl2×6H2O, 30 μg/mL Saponin, pH 7.4 at RT) containing 0.025 μg/μL of membrane protein (prepared from the cell line described above), 10 μM GDP and 0.55 nCi/μL GTPγS^35 in a final volume of 60 μL. The reaction was started by the addition of compounds (GABA was always included as a positive control), start concentration 100 μM dilution factor 3. The reaction was terminated and membranes collected by addition of ice-cold wash buffer (50 mM Tris-HCl, 5 mM MgCl2×6H2O, 50 mM NaCl, pH 7.4 at 4° C.) followed by rapid filtration under vacuum through a MultiScreen HTS 384 FB filter plate. Repeated washing of the filters with ice-cold wash buffer washed the unbound radioligand away. The filter plates were dried for 1½-2 hours at 50° C., then 8 μL scintillation liquid was added per well followed by incubation at RT for at least 20 minutes before bound radioactivity was determined using a β-Liquid Scintillation Counter (1450 Microbeta Trilux, Wallac, Finland)
100% activation (max) is calculated as the mean value for wells containing 1 mM GABA. […]

Experiment [2] has as its target T2, GABAB(1A,2) receptor heterodimer (Homo sapiens, UniProt O75899+Q9UBS5).
T2 construct: expressed in transfected cells; membrane preparation
Description: GTPγS35 radioligand filtration-binding assay for determination of PAM potency. The format is biochemical. Conditions: membranes of CHO-K1 cells expressing GABABR1a/GABABR2; GABA dose-response with 10, 1, 0.1 and 0.01 μM PAM; concentration reducing GABA's EC50 by 50%; read-out: Mean (EC50 derived) PAM EC50. Here is the method: The effect of GABA in an automated GTPγS^35 radioligand filtration-binding assay in CHO cells expressing the GABAB(1A,2) receptor heterodimer was studied in the presence or absence of the positive allosteric modulator test compounds.
as §1, §2, §3
GABABR1a and GABABR2 were cloned from human brain cDNA and subcloned into pCI-Neo (Promega) and pALTER-1 (Promega), respectively.
In order to optimise the Kozak consensus sequence of GABABR2, in situ mutagenesis was performed using the Altered Sites Mutagenesis kit according to manufacturer's instruction (Promega) with the following primer, 5′-[…]-3′. The optimised GABABR2 was then restricted from pALTER-1 with Xho I+Kpn I and subcloned into the mammalian expression vector pcDNA3.1 (−)/Zeo (Invitrogen) to produce the final construct, pcDNA3.1 (−)/Zeo-GABABR2.
For generation of stable cell lines, CHO-K1 cells were grown in Nut mix F-12 (Ham) media supplemented with 10% FBS, 100 U/ml Penicillin and 100 μg/ml Streptomycin at 37° C. in a humidified CO2-incubator. The cells were detached with 1 mM EDTA in PBS and 1 million cells were seeded in 100 mm petri dishes. After 24 hours the culture media was replaced with OptiMEM and incubated for 1 hour in a CO2-incubator.
For generation of a cell line expressing the GABABR1a/GABABR2 heterodimer, GABABR1a plasmid DNA ([…]) GABABR2 plasmid DNA (4 μg) and lipofectamine (24 μl) were mixed in 5 ml OptiMEM and incubated for 45 minutes at room temperature. […] After expansion, the GABAB receptor functional response was tested by measuring the GABAB receptor dependent release of intracellular calcium in a fluorescence imaging plate reader (FLIPR). […]

For orientation: EC50 means the concentration at which the effect is half-maximal.

T2 sequence (Q9UBS5 15-961 limits assumed): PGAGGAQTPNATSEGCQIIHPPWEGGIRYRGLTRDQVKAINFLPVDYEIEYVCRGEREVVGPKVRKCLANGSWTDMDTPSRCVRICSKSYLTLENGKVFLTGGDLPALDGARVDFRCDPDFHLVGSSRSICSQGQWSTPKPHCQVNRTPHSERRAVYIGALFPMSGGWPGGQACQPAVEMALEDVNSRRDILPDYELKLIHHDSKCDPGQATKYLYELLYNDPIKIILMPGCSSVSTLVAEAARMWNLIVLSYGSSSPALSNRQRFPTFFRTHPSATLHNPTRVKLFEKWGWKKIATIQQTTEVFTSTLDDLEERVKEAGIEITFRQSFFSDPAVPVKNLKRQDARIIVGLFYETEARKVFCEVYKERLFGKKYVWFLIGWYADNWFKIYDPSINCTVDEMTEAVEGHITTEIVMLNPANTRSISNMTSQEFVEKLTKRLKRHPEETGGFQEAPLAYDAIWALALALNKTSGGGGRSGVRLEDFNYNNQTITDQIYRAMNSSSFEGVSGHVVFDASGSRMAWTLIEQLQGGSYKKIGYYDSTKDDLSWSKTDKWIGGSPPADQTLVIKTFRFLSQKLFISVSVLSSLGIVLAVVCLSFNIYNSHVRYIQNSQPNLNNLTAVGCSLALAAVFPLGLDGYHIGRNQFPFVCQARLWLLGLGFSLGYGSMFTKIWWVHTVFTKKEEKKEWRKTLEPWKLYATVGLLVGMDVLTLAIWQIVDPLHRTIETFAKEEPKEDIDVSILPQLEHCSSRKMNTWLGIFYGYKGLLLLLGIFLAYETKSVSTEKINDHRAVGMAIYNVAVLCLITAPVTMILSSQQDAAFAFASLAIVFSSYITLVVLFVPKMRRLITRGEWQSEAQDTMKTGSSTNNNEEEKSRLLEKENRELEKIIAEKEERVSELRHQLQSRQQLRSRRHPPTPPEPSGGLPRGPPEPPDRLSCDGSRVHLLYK
T2 sequence (O75899 42-941): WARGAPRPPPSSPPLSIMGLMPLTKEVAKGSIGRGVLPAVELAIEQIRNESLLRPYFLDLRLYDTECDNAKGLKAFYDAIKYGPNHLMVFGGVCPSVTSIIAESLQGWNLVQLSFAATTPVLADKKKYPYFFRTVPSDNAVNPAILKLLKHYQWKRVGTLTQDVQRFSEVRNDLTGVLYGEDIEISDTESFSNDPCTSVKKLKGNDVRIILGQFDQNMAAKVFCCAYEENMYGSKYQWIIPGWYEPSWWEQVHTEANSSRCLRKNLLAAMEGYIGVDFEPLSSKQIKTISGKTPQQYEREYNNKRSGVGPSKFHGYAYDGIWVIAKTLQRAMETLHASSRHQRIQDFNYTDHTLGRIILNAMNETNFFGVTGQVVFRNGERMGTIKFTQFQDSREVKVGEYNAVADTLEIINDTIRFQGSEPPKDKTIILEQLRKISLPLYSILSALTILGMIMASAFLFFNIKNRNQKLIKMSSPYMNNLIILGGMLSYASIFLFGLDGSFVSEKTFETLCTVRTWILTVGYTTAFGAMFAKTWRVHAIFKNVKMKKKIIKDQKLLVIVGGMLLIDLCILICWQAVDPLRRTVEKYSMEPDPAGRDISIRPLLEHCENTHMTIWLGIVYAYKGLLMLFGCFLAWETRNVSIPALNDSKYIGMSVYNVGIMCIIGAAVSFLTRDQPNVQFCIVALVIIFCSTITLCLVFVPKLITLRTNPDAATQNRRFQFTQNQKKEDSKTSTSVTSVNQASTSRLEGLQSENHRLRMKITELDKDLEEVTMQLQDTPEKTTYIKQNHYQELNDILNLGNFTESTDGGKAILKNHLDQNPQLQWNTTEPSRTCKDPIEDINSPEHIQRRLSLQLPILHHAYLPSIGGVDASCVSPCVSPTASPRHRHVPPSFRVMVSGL
T1 sequence (Q9UBS5 15-961 limits assumed): as the sequence (Q9UBS5 15-961 limits assumed) above
T1 sequence (O75899 42-941): as the sequence (O75899 42-941) above

For `Cc1nc2ccc(Br)cc2c(-c2ccc(F)cc2)c1C(C)Oc1ccc(Cl)cc1` (stereo not shown) [Example 2, 6-bromo-3-[1-(4-chlorophenoxy)ethyl]-4-(4-fluorophenyl)-2-methylquinoline], the figures for the EC50 in experiment [1] and in experiment [2] were 6.5 µM and 9.2 µM, respectively.
As to `Cc1nc2ccc(N3CCCCC3)cc2c(-c2ccc(F)cc2)c1C(=O)OC(C)(C)C` [Example 22, tert-butyl 4-(4-fluorophenyl)-2-methyl-6-piperidin-1-ylquinoline-3-carboxylate], the results for the concentration giving a half-maximal response (EC50) in experiment [1] and in experiment [2] were 1.3 µM and 18 µM, respectively.
